Results as given in patent US10385056B2, “4-substituted pyrrolo[2,3-d]pyrimidine compound and use thereof” (JIANGSU CAREFREE PHARMACEUTICAL CO., LTD, priority 2014, dated 2019).

Columns and labels:
[1] = target: JAK1 (Homo sapiens, UniProt P23458); assay: Caliper Mobility Shift Assay, kinase inhibition; assay type: biochemical; details: ATP by Km value
[2] = target: JAK2 (Homo sapiens, UniProt O60674); assay: Caliper Mobility Shift Assay, kinase inhibition; assay type: biochemical; details: ATP by Km value
[3] = target: T1, JAK3 (Homo sapiens, UniProt P52333); assay: Caliper Mobility Shift Assay, kinase inhibition; assay type: biochemical; details: ATP by Km value
T1 sequence (P52333 1-1124): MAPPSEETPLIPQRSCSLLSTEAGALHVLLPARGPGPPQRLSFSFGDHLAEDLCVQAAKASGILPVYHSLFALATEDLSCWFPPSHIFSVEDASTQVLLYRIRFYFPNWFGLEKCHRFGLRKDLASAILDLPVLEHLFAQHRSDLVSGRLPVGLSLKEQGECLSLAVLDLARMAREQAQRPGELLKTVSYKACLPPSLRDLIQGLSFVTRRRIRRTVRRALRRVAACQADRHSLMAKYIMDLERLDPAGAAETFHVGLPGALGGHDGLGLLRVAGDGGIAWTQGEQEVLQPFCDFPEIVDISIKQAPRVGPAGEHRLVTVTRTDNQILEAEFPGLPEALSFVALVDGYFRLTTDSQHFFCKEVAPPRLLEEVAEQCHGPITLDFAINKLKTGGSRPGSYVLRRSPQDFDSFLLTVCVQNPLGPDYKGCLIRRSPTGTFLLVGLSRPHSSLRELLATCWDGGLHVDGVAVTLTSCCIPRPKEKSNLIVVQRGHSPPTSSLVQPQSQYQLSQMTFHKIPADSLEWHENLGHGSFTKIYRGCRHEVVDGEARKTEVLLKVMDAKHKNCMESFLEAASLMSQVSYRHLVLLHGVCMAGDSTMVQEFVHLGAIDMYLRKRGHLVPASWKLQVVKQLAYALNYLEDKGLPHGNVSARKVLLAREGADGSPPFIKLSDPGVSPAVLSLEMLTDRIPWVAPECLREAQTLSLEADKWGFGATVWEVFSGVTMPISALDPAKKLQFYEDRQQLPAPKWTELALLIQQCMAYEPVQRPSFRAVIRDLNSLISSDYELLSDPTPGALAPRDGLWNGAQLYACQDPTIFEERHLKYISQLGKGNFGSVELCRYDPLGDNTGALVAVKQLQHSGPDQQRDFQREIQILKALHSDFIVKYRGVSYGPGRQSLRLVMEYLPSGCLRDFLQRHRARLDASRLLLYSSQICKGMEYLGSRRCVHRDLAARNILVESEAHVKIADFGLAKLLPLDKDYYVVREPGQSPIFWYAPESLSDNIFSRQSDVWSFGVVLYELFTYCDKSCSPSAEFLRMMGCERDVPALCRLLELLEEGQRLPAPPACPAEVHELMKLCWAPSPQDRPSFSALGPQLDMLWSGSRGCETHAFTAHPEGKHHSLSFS

[4] = tested on: phosphorylated JAK1; assay: CTLL-2 cells, IL-2 stimulated, Western blot of phosphorylation; assay type: cell-based; details: Mus musculus, starved 6 h with compound, IL-2 150 U/mL 10 min, phosphorylated JAK1 by Western blot, read-out: IC50 g (nM) JAK1
Description: (§1) Incubating for 10 min and collecting cells. Adding cell lysis buffer for cell lysis. Collecting protein to perform WEST-Blot detection, detecting phosphorylated JAK1, the phosphorylation of JAK2 and the phosphorylated STAT5, and obtaining the IC50 value.

[5] = tested on: phosphorylated STAT5; assay: as above; assay type: cell-based; details: Mus musculus, starved 6 h with compound, IL-2 150 U/mL 10 min, phosphorylated STAT5 by Western blot, read-out: IC50 g (nM) STAT5
Description: as §1

[6] = tested on: phosphorylation of JAK2; assay: as above; assay type: cell-based; details: Mus musculus, starved 6 h with compound, IL-2 150 U/mL 10 min, phosphorylation of JAK2 by Western blot, read-out: IC50 g (nM) JAK2
Description: as §1

[7] = tested on: Jurkat cells; assay: Inhibition of cell proliferation of human lymphocytoma (CCK-8); assay type: cell-based; details: 48 h, CCK-8, 450 nm absorption
Description: Spreading the Jurkat cells out for in-vitro cultivation on a 96-well plate with 1500 cells in each well, making the highest concentration of the compound be 50 μM in the cultivation system, and diluting the drug concentration according to 10-time step dilution.

[8] = tested on: rat with rheumatoid arthritis; assay: Collagen-induced rheumatoid arthritis model, arthritis score; assay type: in vivo; details: DBA/1J rat, bovine Type II collagen/CFA model, intragastric administration, scored 2 weeks after administration, 1-4 scoring method
Description: For the function of the compound inhibiting rheumatoid arthritis, selecting DBA/1J rat, carrying out subcutaneous injection after complete emulsion of 50 ug of bovine Type II collagen and isometric complete Freund's adjuvant (CFA). Strengthening immunization once 21 days after adequate emulsion of 50 ug of same antigen and incomplete Freund's adjuvant (IFA). Starting observation and recording from the 45th day. Using 1-4 scoring method: 1 score, normal; 2 scores, swelling of one joint; 3 scores, swelling of more than one joint but not all joints; 4 scores, severe swelling or stiffness of the whole claw. Adding scores of all claws to obtain the total score of arthritis in rat. Showing successful model establishment when the total joint score of the rat is more than 1. After successfully establishing the model of rat with rheumatoid arthritis, using the compound of the invention to feed the rat by intragastric administration and scoring arthritis of the rat 2 weeks after administration.

Chain of JAK1 (P23458 whole entry, species assumed): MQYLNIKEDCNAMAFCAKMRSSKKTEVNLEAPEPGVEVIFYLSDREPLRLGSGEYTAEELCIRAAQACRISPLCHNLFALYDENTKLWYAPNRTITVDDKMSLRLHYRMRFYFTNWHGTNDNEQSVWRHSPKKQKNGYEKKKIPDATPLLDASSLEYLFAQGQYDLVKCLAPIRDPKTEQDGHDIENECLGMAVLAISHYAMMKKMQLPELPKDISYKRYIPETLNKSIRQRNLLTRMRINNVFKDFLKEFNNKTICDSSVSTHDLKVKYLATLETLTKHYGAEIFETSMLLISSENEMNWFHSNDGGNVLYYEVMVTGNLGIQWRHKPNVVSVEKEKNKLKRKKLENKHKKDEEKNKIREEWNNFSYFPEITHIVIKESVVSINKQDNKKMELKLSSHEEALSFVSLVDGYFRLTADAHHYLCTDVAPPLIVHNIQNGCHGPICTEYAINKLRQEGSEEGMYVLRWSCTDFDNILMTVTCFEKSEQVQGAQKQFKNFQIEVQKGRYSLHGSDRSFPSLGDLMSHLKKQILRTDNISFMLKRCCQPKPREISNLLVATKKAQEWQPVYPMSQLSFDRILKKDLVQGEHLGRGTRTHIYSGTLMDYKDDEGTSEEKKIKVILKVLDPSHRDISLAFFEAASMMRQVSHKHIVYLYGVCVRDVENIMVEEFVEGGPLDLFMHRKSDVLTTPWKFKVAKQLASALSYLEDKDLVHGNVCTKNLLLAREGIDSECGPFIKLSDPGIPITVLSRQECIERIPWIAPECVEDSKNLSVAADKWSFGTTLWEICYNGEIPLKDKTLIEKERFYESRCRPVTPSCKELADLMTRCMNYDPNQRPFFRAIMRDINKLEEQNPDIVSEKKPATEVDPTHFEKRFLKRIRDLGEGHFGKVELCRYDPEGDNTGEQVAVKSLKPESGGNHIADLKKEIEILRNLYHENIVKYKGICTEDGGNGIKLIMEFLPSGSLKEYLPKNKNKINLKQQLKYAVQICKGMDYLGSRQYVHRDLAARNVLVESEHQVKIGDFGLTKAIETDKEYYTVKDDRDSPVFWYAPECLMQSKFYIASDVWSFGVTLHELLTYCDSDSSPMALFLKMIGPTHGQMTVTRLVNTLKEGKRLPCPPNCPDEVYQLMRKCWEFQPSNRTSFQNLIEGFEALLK
Chain of JAK2 (O60674 whole entry, species assumed): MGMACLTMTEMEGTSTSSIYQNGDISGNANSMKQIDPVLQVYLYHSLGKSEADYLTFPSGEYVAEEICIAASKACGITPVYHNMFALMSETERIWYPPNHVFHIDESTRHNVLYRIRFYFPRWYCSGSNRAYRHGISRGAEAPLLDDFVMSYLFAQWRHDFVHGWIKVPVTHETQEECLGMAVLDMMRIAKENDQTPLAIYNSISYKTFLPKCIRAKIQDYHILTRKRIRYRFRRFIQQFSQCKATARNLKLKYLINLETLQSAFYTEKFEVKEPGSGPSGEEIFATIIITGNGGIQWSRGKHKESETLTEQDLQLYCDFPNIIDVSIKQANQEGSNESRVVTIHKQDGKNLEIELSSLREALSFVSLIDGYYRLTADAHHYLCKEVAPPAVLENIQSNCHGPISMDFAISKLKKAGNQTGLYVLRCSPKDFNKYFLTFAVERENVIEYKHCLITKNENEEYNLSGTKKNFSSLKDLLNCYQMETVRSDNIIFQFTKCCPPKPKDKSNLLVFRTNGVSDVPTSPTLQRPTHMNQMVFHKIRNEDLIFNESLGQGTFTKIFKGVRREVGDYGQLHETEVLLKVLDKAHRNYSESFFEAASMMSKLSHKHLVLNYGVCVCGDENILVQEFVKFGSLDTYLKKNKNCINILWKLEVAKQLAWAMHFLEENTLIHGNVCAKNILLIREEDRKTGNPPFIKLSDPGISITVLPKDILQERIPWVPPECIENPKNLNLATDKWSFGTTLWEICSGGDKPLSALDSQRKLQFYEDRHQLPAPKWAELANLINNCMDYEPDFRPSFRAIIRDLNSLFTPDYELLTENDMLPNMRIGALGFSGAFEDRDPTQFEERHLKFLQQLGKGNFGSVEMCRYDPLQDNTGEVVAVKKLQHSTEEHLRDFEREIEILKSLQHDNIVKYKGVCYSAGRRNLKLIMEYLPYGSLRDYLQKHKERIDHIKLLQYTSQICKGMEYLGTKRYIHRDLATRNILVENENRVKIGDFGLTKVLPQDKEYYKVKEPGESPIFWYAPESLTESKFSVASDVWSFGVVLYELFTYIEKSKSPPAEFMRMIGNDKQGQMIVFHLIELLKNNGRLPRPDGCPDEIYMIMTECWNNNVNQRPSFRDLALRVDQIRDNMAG

CCS(=O)(=O)N1CC(CC#N)(n2cc(-c3ncnc4[nH]ccc34)c3ccc(F)cc32)C1 [Example 20, 2-(1-(ethylsulfonyl)-3-(6-fluoro-3-(7H-pyrrole[2,3-d]pyrimidine-4-yl)-1H-indole-1-yl)azetidine-3-yl)acetonitrile] was tested, and the IC50 [1] was 0.5 nM, the IC50 [2] was 0.61 nM and the IC50 [3] was 28 nM. It also gave an IC50 [4] of 18.5 nM, an IC50 [5] of 309 nM and an IC50 [6] of 15.2 nM. It also gave an IC50 [7] of 225 nM and a Score of arthritis [8] of 1.6.

For CCCCS(=O)(=O)N1CC(CC#N)(n2cc(-c3ncnc4[nH]ccc34)c3ccccc32)C1 [Example 6, 2-(3-(3-(7H-pyrrole[2,3-d]pyrimidine-4-yl)-1H-indole-1-yl)-1-(butylsulfonyl)azetidine-3-yl)acetonitrile], the IC50 [1] was 22 nM, the IC50 [2] was 7.1 nM and the IC50 [3] was 200 nM. It also gave an IC50 [4] of 22 nM, an IC50 [5] of 322 nM and an IC50 [6] of 8 nM. The IC50 [7] was 458 nM and the Score of arthritis [8] was 2.3.

Work on CN(C)S(=O)(=O)N1CC(CC#N)(n2cc(-c3ncnc4[nH]ccc34)c3ccccc32)C1 [Example 7] yielded an IC50 [1] of 15 nM, an IC50 [2] of 1.5 nM and an IC50 [3] of 116 nM. The IC50 [4] was 45 nM, the IC50 [5] was 214 nM and the IC50 [6] was 9.6 nM. The IC50 [7] was 123 nM and the Score of arthritis [8] was 2.5.

Compound CCS(=O)(=O)N1CC(CC#N)(n2cc(-c3ncnc4[nH]ccc34)c3cc(OC)ccc32)C1 [Example 64, 2-(1-(ethylsulfonyl)-3-(5-methoxyl-3-(7H-pyrrole[2,3-d]pyrimidine-4-yl)-1H-indole-1-yl)azetidine-3-yl)acetonitrile] has an IC50 [1] of 23 nM, an IC50 [2] of 2.9 nM and an IC50 [3] of 262 nM. The IC50 [4] was 42.9 nM, the IC50 [5] was 201 nM and the IC50 [6] was 28.7 nM. The IC50 [7] was 136 nM and the Score of arthritis [8] was 2.3.
